Laboratory results as given in PubChem BioAssay AID1963863 (Molecular Pharmacology Branch, DTP, NCI, 2024).

Tested on: 931267-113-T-J1-PDC KRAS spheroid with HUVEC/MSC, viability
Experiment: Anticancer human tumor 931267-113-T-J1-PDC patient-derived colon adenocarcinoma cell line growth inhibition [KRAS2]
Details: for IC50: curve of first compound; for viability, T/C: stronger effect = lower value
Outline: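 Combination screen of spheroid viability in tumor-cell co-cultures with endothelial (HUVEC) and mesenchymal stem cell stroma. Each agent was tested in half-log dilutions, topping at clinical Cmax or at 10 microM without a known Cmax.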

[1] = second compound 0.1 µM, first compound 0.0316 µM
[2] = second compound 0.1 µM, first compound 0.1 µM
[3] = second compound 0.1 µM, first compound 0.316 µM
[4] = second compound 0.1 µM, first compound 1 µM
[5] = second compound 0.1 µM, first compound 3.16 µM
[6] = second compound 0.1 µM, first compound 10 µM
[7] = second compound 0.316 µM, first compound 0.0316 µM
[8] = second compound 0.316 µM, first compound 0.1 µM
[9] = second compound 0.316 µM, first compound 0.316 µM
[10] = second compound 0.316 µM, first compound 1 µM
[11] = second compound 0.316 µM, first compound 3.16 µM
[12] = second compound 0.316 µM, first compound 10 µM
[13] = second compound 1 µM, first compound 0.0316 µM
[14] = second compound 1 µM, first compound 0.1 µM
[15] = second compound 1 µM, first compound 0.316 µM
[16] = second compound 1 µM, first compound 1 µM
[17] = second compound 1 µM, first compound 3.16 µM
[18] = second compound 1 µM, first compound 10 µM
[19] = second compound 3.16 µM, first compound 0.0316 µM
[20] = second compound 3.16 µM, first compound 0.1 µM
[21] = second compound 3.16 µM, first compound 0.316 µM
[22] = second compound 3.16 µM, first compound 1 µM
[23] = second compound 3.16 µM, first compound 3.16 µM
[24] = second compound 3.16 µM, first compound 10 µM
[25] = second compound 10 µM, first compound 0.0316 µM
[26] = second compound 10 µM, first compound 0.1 µM
[27] = second compound 10 µM, first compound 0.316 µM
[28] = second compound 10 µM, first compound 1 µM
[29] = second compound 10 µM, first compound 3.16 µM
[30] = second compound 10 µM, first compound 10 µM
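Also: compound exposure lasted 7 days before the readout.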
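For viability, T/C in this document: 100% = DMSO vehicle control viability.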

SMILES	IC50 (second compound 0.1 µM) [nM]	IC50 (second compound 0.316 µM) [nM]	IC50 (second compound 1 µM) [nM]	IC50 (second compound 3.16 µM) [nM]	viability, T/C [1] [%]	viability, T/C [2] [%]	viability, T/C [3] [%]	viability, T/C [4] [%]	viability, T/C [5] [%]	viability, T/C [7] [%]	viability, T/C [8] [%]	viability, T/C [9] [%]	viability, T/C [10] [%]	viability, T/C [11] [%]	viability, T/C [13] [%]	viability, T/C [14] [%]	viability, T/C [15] [%]	viability, T/C [16] [%]	viability, T/C [17] [%]	viability, T/C [19] [%]	further results
Cn1nccc1Nc1nccc(-c2cc3c(s2)C(C)(C)N(CCN2CCOCC2)C3=O)n1 + C=CC(=O)N1CCN(c2nc(=O)n(-c3c(C)ccnc3C(C)C)c3nc(-c4c(O)cccc4F)c(F)cc23)C(C)C1	568	601	598	611	94.2	90.4	63.4	38.2	5.19	109	84.2	74.9	34	8.86	82	104	72.8	30.6	6.74	93.3	IC50 (second compound 10 µM): 703 nM; viability, T/C [6]: 5.01%; viability, T/C [12]: 5.22%; viability, T/C [18]: 6.41%; viability, T/C [20]: 101%; viability, T/C [21]: 81.1%; viability, T/C [22]: 26.6%; viability, T/C [23]: 9.57%; viability, T/C [24]: 9.73%; viability, T/C [25]: 91.2%; viability, T/C [26]: 95.3%; viability, T/C [27]: 74.9%; viability, T/C [28]: 39.3%; viability, T/C [29]: 14.1%; viability, T/C [30]: 11%
CC1OCC2(CCN(c3cnc(Sc4ccnc(N)c4Cl)c(N)n3)CC2)C1N (stereo not given) + COc1cc2nc(C)nc(NC(C)c3cc(N)cc(C(F)(F)F)c3)c2cc1OC1CCOC1	> 10000	> 10000	> 10000	> 10000	79.3	59	75.5	77.5	68.3	62.2	56.1	65	68.1	70.6	70.6	72.8	56	63.1	79	70.7	IC50 (second compound 10 µM): < 31.6 nM; viability, T/C [6]: 90.7%; viability, T/C [12]: 77.9%; viability, T/C [18]: 64.9%; viability, T/C [20]: 49.8%; viability, T/C [21]: 51.8%; viability, T/C [22]: 54.9%; viability, T/C [23]: 61.4%; viability, T/C [24]: 67.6%; viability, T/C [25]: 3.02%; viability, T/C [26]: 2.08%; viability, T/C [27]: 4.77%; viability, T/C [28]: 2.12%; viability, T/C [29]: 2.08%; viability, T/C [30]: 0.42%
CC(=O)OC12COC1CC(O)C1(C)C(=O)C(O)C3=C(C)C(OC(=O)C(O)C(NC(=O)OC(C)(C)C)c4ccccc4)CC(O)(C(OC(=O)c4ccccc4)C21)C3(C)C (stereo not given) + C=CC(=O)N1CCN(c2nc(OCC3CCCN3C)nc3c2CCN(c2cccc4cccc(C)c24)C3)CC1CC#N	> 3160	> 3160	1300	> 3160	99.4	89.6	82.7	72.1	82.4	109	94.7	75.8	76.7	75.5	91.4	77	86	54.6	34.5	104	IC50 (second compound 0.0316 µM): > 3160 nM; viability, T/C (second compound 0.0316 µM, first compound 0.01 µM): 87.4%; viability, T/C (second compound 0.0316 µM, first compound 0.0316 µM): 86.6%; viability, T/C (second compound 0.0316 µM, first compound 0.1 µM): 76.2%; viability, T/C (second compound 0.0316 µM, first compound 0.316 µM): 91.5%; viability, T/C (second compound 0.0316 µM, first compound 1 µM): 128%; viability, T/C (second compound 0.0316 µM, first compound 3.16 µM): 78.6%; viability, T/C (second compound 0.1 µM, first compound 0.01 µM): 106%; viability, T/C (second compound 0.316 µM, first compound 0.01 µM): 126%; viability, T/C (second compound 1 µM, first compound 0.01 µM): 84.5%; viability, T/C (second compound 3.16 µM, first compound 0.01 µM): 83.5%; viability, T/C [20]: 102%; viability, T/C [21]: 84.8%; viability, T/C [22]: 91.7%; viability, T/C [23]: 90.1%
